# From patent publication US6479435B1, “Diaryl ethers and processes for their preparation and herbicidal and desiccant compositions containing them” (ISK Americas Incorporated, priority 1997, dated 2002)
# What was measured:
# [1] = test system: Broadleaf Weeds; assay: Post-emergent application in combination with other herbicides, percent control of broadleaf weeds; assay type: in vivo
# Protocol: All test compounds were dissolved in acetone and applied to the test units in a volume of 187 l/ha. Test materials were applied at rates ranging from 125 g ai/ha to 1000 g ai/ha using a track sprayer equipped with a TJ8001E even flow flat fan spray nozzle. Plants were arranged on a shelf so that the top of the canopy (post-emerge) or top of the soil surface (pre-emerge) was 40-45 cm below the nozzle. Pressurized air was used to force the test solution through the nozzle as it was mechanically advanced (via electrically driven chain drive) over the top of all test plants/pots. This application simulates a typical commercial field herbicide application. […] For post-emerge tests, seeds were planted 8-21 days prior to the test to allow emergence and good foliage development prior to application of the test substances. At the time of the post-emerge application, plants of all species were usually at the 2-3 leaf stage of development. Post-emerge test units were always bottom-watered. At 14 days after application of the test materials, phytotoxicity ratings were recorded. A rating scale of 0-100 was used as previously described in Research Methods in Weed Science, 2nd edition, B. Truelove, Ed., Southern Weed Science Society, Auburn University, Auburn, Ala., 1977. Briefly, “0” corresponds to no damage and “100” corresponds to complete death of all plants in the test unit. This scale was used both to determine efficacy against weed species and damage to crop species. Herbicide activity data for various compounds of this invention, which are shown by compound number in Tables 1-9, are shown in Tables 13 and 14. […] (Note: Weed species abbreviations are from the Composite List of Weeds published by the Weed Science Society of America, 1989.) The following examples illustrate the utility of combinations of compounds of this invention and existing herbicides. The methods used are identical to those for the application of single compounds except the commercial formulations of existing herbicides were added to the spray mixture in the appropriate amounts before spraying. Combination Example 3. Post-emergent Application of Compound 9-1 with Nicosulfuron Combination Example 4. Postemergent Application of Compound 9-1 with Pyridate
# [2] = test system: Grass Weeds; assay: Post-emergent application in combination with other herbicides, percent control of grass weeds; assay type: in vivo
# Protocol: All test compounds were dissolved in acetone and applied to the test units in a volume of 187 l/ha. Test materials were applied at rates ranging from 125 g ai/ha to 1000 g ai/ha using a track sprayer equipped with a TJ8001E even flow flat fan spray nozzle. Plants were arranged on a shelf so that the top of the canopy (post-emerge) or top of the soil surface (pre-emerge) was 40-45 cm below the nozzle. Pressurized air was used to force the test solution through the nozzle as it was mechanically advanced (via electrically driven chain drive) over the top of all test plants/pots. This application simulates a typical commercial field herbicide application. In the post-emerge test, a commercial non-ionic surfactant was also included (0.25% v/v) to enhance wetting of the leaf surfaces Qf target plants at rates ranging from 63 g ai/ha to 1000 g ai/ha. For post-emerge tests, seeds were planted 8-21 days prior to the test to allow emergence and good foliage development prior to application of the test substances. At the time of the post-emerge application, plants of all species were usually at the 2-3 leaf stage of development. Post-emerge test units were always bottom-watered. At 14 days after application of the test materials, phytotoxicity ratings were recorded. A rating scale of 0-100 was used as previously described in Research Methods in Weed Science, 2nd edition, B. Truelove, Ed., Southern Weed Science Society, Auburn University, Auburn, Ala., 1977. Briefly, “0” corresponds to no damage and “100” corresponds to complete death of all plants in the test unit. This scale was used both to determine efficacy against weed species and damage to crop species. Herbicide activity data for various compounds of this invention, which are shown by compound number in Tables 1-9, are shown in Tables 13 and 14. […] (Note: Weed species abbreviations are from the Composite List of Weeds published by the Weed Science Society of America, 1989.) The following examples illustrate the utility of combinations of compounds of this invention and existing herbicides. The methods used are identical to those for the application of single compounds except the commercial formulations of existing herbicides were added to the spray mixture in the appropriate amounts before spraying. Combination Example 3. Post-emergent Application of Compound 9-1 with Nicosulfuron Combination Example 4. Postemergent Application of Compound 9-1 with Pyridate
structure (smiles),measurement,setting,value
"CCS(=O)(=O)c1cccnc1Oc1cc(-n2c(=O)cc(C(F)(F)F)n(N)c2=O)c(F)cc1Cl [Compound 9-13, 1-Amino-3-[4-Chloro-2-fluoro-5-(3-ethylsulfonyl-2-pyridyloxy)phenyl]-6-trifluoromethyl-1,2,3,4-tetrahydropyrimidine-2,4-dione]",melting point,,277 to 279 °C
"CS(=O)(=O)c1cccnc1Oc1cc(-n2c(=O)cc(C(F)(F)F)n(N)c2=O)c(F)cc1Cl [Compound 9-19, 1-Amino-3-[4-chloro-2-fluoro-5-(3-methylsulfonyl-2-pyridyloxy)phenyl]-6-trifluoromethyl-1,2,3,4-tetrahydropyrimidine-2,4-dione]",melting point,,276 to 278 °C
"N#Cc1ccccc1Oc1cc(-n2c(=O)cc(C(F)(F)F)n(N)c2=O)c(F)cc1Cl [Compound 9-30, 1-Amino-3-[4-chloro2-fluoro-5-(2-cyanophenoxy)phenyl]-6-trifluoromethyl-1,2,3,4-tetrahydropyrimidine-2,4-dione]",melting point,,220 to 222 °C
"N#Cc1c(F)cccc1Oc1cc(-n2c(=O)cc(C(F)(F)F)n(N)c2=O)c(F)cc1Cl [Compound 9-31, 1-Amino-3-[4-chloro-2-fluoro-5-(2-cyano-3-fluorophenoxy)phenyl]-6-trifluoromethyl-1,2,3,4-tetrahydropyrimidine-2,4-dione]",melting point,,230 to 233 °C
"COc1cc(OC)nc(NC(=O)NS(=O)(=O)c2ncccc2C(=O)N(C)C)n1 [Nicosulfuron, reference compound]",Percent Control of Broadleaf Weeds ABUTH,[1]; 23 g ai/ha,55%
same,Percent Control of Broadleaf Weeds AMARE,[1]; 23 g ai/ha,70%
same,Percent Control of Broadleaf Weeds AMBEL,[1]; 23 g ai/ha,0%
same,Percent Control of Broadleaf Weeds CASOB,[1]; 23 g ai/ha,30%
same,Percent Control of Broadleaf Weeds CHEAL,[1]; 23 g ai/ha,70%
same,Percent Control of Broadleaf Weeds IPOHE,[1]; 23 g ai/ha,70%
same,Percent Control of Grass Weeds DIGSA,[2]; 23 g ai/ha,80%
same,Percent Control of Grass Weeds ECHCG,[2]; 23 g ai/ha,95%
same,Percent Control of Grass Weeds SETVI,[2]; 23 g ai/ha,85%
same,Percent Control of Grass Weeds SORHA,[2]; 23 g ai/ha,85%
"CCCCCCCCSC(=O)Oc1cc(Cl)nnc1-c1ccccc1 [Pyridate, reference compound]",Percent Control of Broadleaf Weeds ABUTH,[1]; 527 g ai/ha,60%
same,Percent Control of Broadleaf Weeds AMARE,[1]; 527 g ai/ha,90%
same,Percent Control of Broadleaf Weeds AMBEL,[1]; 527 g ai/ha,40%
same,Percent Control of Broadleaf Weeds CASOB,[1]; 527 g ai/ha,10%
same,Percent Control of Broadleaf Weeds CHEAL,[1]; 527 g ai/ha,85%
same,Percent Control of Broadleaf Weeds IPOHE,[1]; 527 g ai/ha,80%
same,Percent Control of Grass Weeds DIGSA,[2]; 527 g ai/ha,10%
same,Percent Control of Grass Weeds ECHCG,[2]; 527 g ai/ha,50%
same,Percent Control of Grass Weeds SETVI,[2]; 527 g ai/ha,95%
same,Percent Control of Grass Weeds SORHA,[2]; 527 g ai/ha,10%
